Test results: patent publication US10766914B2, “DNA alkylating agents” (OBI PHARMA, INC., priority 2015, dated 2020)

system: not listed separately; test: Pharmacokinetics in CD-1 mice following a single intraperitoneal dose (parent and TH2660); conditions: mouse, in vivo, ip, parent compound
Method: The pharmacokinetics of TH2873, TH2883, TH2888, TH2890, TH2901 and TH2926 were determined in CD-1 mice following a single intraperitoneal dose.
The pharmacokinetics of TH2660, the active metabolite, following a single intraperitoneal dose of TH2873, TH2883, TH2888, TH2890, TH2901 and TH2926 are shown below.

Compound | AUC | Cmax | Tmax | half-life
CC(OP(=O)(N1CC1)N1CC1)c1ccc([N+](=O)[O-])c(Oc2ccc(NS(=O)(=O)CCl)cc2)c1 (stereo not drawn) [Compound 2926] | 9650 ng·h/mL | 8340 ng/mL | 15 min | 34.2 min
O=[N+]([O-])c1ccc(COP(=O)(N2CC2)N2CC2)cc1Oc1ccc2ncsc2c1 [Compound 2901] | 2580 ng·h/mL | 5120 ng/mL | 5 min | 12.1 min

system: H460 cells; test: Proliferation assay in H460 cells (2 hr exposure, AlamarBlue); type: cell-based, human; conditions: 2 hrs exposure, wash, 70 hrs growth, read-out: IC 50 in proliferation assay in H460 cells
Method: In vitro proliferation data on the H460 […] human tumor cell line is reported above in the compound table.
Specifically, exponentially growing cells were seeded at a density of 4×10^3 cells per well in a 96 well plate and incubated at 37° C. in 5% CO2, 95% air and 100% relative humidity for 24 hours prior to addition of test compounds. Compounds were solubilized in 100% DMSO at 200 times the desired final test concentration. At the time of drug addition, compounds were further diluted to 4 times the desired final concentration with complete medium. Aliquots of 50 μl of compound at specified concentrations were added to microtiter wells already containing 150 μl of medium, resulting in the final drug concentration reported. After drug addition, the plates were incubated for an additional 2 hours at 37° C., 5% CO2, 95% air, and 100% relative humidity, then the drug was washed off and fresh medium was added and the plates were incubated for addition 70 hrs at 37° C., 5% CO2, 95% air and 100% relative humidity. At the end of this incubation, the viable cells were quantified using the AlamarBlue assay. The drug concentration resulting in growth inhibition of 50% (IC50) was calculated using Prism software (Irvine, Calif.), and the results were listed in the table.

Compound | IC50
CC(OP(=O)(N1CC1)N1CC1)c1ccc([N+](=O)[O-])c(Oc2cccc([N+](=O)[O-])c2)c1 (stereo not drawn) [Compound 2922] | 3 nM

same assay, conditions: Homo sapiens, NCI-H460, 2 hrs exposure, wash, 70 hrs growth, read-out: IC 50 in proliferation assay in H460 cells

Compound | IC50
CC(OP(=O)(N1CC1)N1CC1)c1ccc([N+](=O)[O-])c(Oc2ccc(NS(=O)(=O)CCl)cc2)c1 (stereo not drawn) [Compound 2926] | 20 nM
CC(OP(=O)(N1CC1)N1CC1)c1ccc([N+](=O)[O-])c(Oc2c(F)cccc2F)c1 (stereo not drawn) [Compound 2932] | 20 nM
CC(OP(=O)(N1CC1)N1CC1)c1ccc([N+](=O)[O-])c(Oc2ccccc2F)c1 (stereo not drawn) [Compound 2865] | 30 nM
COc1ccc(Oc2cc(COP(=O)(N3CC3)N3CC3)ccc2[N+](=O)[O-])cc1 [Compound 2895] | 4 nM
CNS(=O)(=O)c1ccc(Oc2cc(COP(=O)(N3CC3)N3CC3)ccc2[N+](=O)[O-])cc1 [Compound 2903] | 30 nM
O=[N+]([O-])c1ccc(COP(=O)(N2CC2)N2CC2)cc1Oc1ccc(C(F)(F)F)cc1 [Compound 3037] | 1 nM
CC(OP(=O)(N1CC1)N1CC1)c1ccc([N+](=O)[O-])c(Oc2ccc(-c3ncco3)cc2)c1 (stereo not drawn) [Compound 2904] | 10 nM
CC(OP(=O)(N1CC1)N1CC1)c1ccc([N+](=O)[O-])c(Oc2cccc3ccccc23)c1 (stereo not drawn) [Compound 2954] | 100 nM
CC(OP(=O)(N1CC1)N1CC1)c1ccc(Oc2ccccc2)c([N+](=O)[O-])c1 (stereo not drawn) [Compound 2906, reference compound] | 4000 nM
CC(C)(C)c1ccc(Oc2cc(COP(=O)(N3CC3)N3CC3)ccc2[N+](=O)[O-])cc1 [Compound 3035] | 1 nM
CCOC(=O)c1ccc(Oc2cc(C(C)OP(=O)(N3CC3)N3CC3)ccc2[N+](=O)[O-])cc1 (stereo not drawn) [Compound 2853] | < 5 nM
CC(OP(=O)(N1CC1)N1CC1)c1ccc([N+](=O)[O-])c(Oc2ccc(F)cc2F)c1 (stereo not drawn) [Compound 2863] | 20 nM
CC(OP(=O)(N1CC1)N1CC1)c1ccc([N+](=O)[O-])c(Oc2cccc(C(N)=O)c2)c1 (stereo not drawn) [Compound 2924] | 100 nM
Cc1nc2cc(Oc3cc(COP(=O)(N4CC4)N4CC4)ccc3[N+](=O)[O-])ccc2s1 [Compound 2929] | 30 nM
CC(OP(=O)(N1CC1)N1CC1)c1ccc([N+](=O)[O-])c(Oc2ccc(-c3ccc(F)cc3)cc2)c1 (stereo not drawn) [Compound 3042] | 5 nM
CNC(=O)c1ccccc1Oc1cc(COP(=O)(N2CC2)N2CC2)ccc1[N+](=O)[O-] [Compound 2939] | 2700 nM
O=[N+]([O-])c1ccc(COP(=O)(N2CC2)N2CC2)cc1Oc1cccnc1 [Compound 2877] | 20 nM
O=[N+]([O-])c1ccc(COP(=O)(N2CC2)N2CC2)cc1Oc1ccccc1-c1ccccc1 [Compound 3029] | 600 nM
CC(OP(=O)(N1CC1)N1CC1)c1ccc([N+](=O)[O-])c(Oc2ccc(F)cc2)c1 (stereo not drawn) [Compound 2861] | 20 nM
CC(OP(=O)(N1CC1)N1CC1)c1ccc([N+](=O)[O-])c(Oc2ccc(S(=O)(=O)Nc3ccc(F)cc3)cc2)c1 (stereo not drawn) [Compound 2916] | 120 nM

Compound | IC50
CCN(CC)C(=O)c1cccc(Oc2cc(C(C)OP(=O)(N3CC3)N3CC3)ccc2[N+](=O)[O-])c1 (stereo not drawn) [Compound 2985] | 4 nM
O=[N+]([O-])c1ccc(COP(=O)(N2CC2)N2CC2)c(Oc2ccccc2)c1 [Compound 2960] | 1600 nM
Cn1cnc2cc(Oc3cc(COP(=O)(N4CC4)N4CC4)ccc3[N+](=O)[O-])ccc21 [Compound 2921] | 7 nM
CC(OP(=O)(N1CC1)N1CC1)c1ccc([N+](=O)[O-])c(Oc2ccc(S(N)(=O)=O)cc2)c1 (stereo not drawn) [Compound 2880] | 100 nM
N#Cc1ccc(Oc2cc(COP(=O)(N3CC3)N3CC3)ccc2[N+](=O)[O-])cc1 [Compound 2927] | 3 nM
CC(OP(=O)(N1CC1)N1CC1)c1ccc([N+](=O)[O-])c(Oc2cccc(-c3ccccc3)c2)c1 (stereo not drawn) [Compound 2991] | 6 nM
CC(OP(=O)(N1CC1)N1CC1)c1ccc([N+](=O)[O-])c(Oc2cccc(C(=O)N3CCS(=O)(=O)CC3)c2)c1 (stereo not drawn) [Compound 2993] | 20 nM
CC(OP(=O)(N1CC1)N1CC1)c1ccc([N+](=O)[O-])c(Oc2ccc3c(c2)ncn3C)c1 (stereo not drawn) [Compound 2920] | 20 nM
CC(OP(=O)(N1CC1)N1CC1)c1ccc([N+](=O)[O-])c(Oc2ccc([N+](=O)[O-])cc2)c1 (stereo not drawn) [Compound 2935] | 20 nM
CC(OP(=O)(N1CC1)N1CC1)c1ccc([N+](=O)[O-])c(Oc2ccc(C(=O)N(C)C)cc2)c1 (stereo not drawn) [Compound 2908] | 7 nM
O=[N+]([O-])c1ccc(Oc2cc(COP(=O)(N3CC3)N3CC3)ccc2[N+](=O)[O-])cc1 [Compound 2934] | 3 nM
CN(C(=O)c1ccc(Oc2cc(COP(=O)(N3CC3)N3CC3)ccc2[N+](=O)[O-])cc1)c1ccccc1 [Compound 2974] | 1 nM
CC(OP(=O)(N1CC1)N1CC1)c1ccc([N+](=O)[O-])c(Oc2cccc(N(C)C)c2)c1 (stereo not drawn) [Compound 2855] | 30 nM
CS(=O)(=O)c1cccc(Oc2cc(COP(=O)(N3CC3)N3CC3)ccc2[N+](=O)[O-])c1 [Compound 2951] | 20 nM
CC(OP(=O)(N1CC1)N1CC1)c1ccc([N+](=O)[O-])c(Oc2ccc(C(N)=O)cc2)c1 (stereo not drawn) [Compound 2923] | 20 nM
Cc1nc2cc(Oc3cc(C(C)OP(=O)(N4CC4)N4CC4)ccc3[N+](=O)[O-])ccc2s1 (stereo not drawn) [Compound 2928] | 30 nM
CC(OP(=O)(N1CC1)N1CC1)c1ccc([N+](=O)[O-])c(Oc2ccccc2S(C)(=O)=O)c1 (stereo not drawn) [Compound 2980] | 3000 nM
CS(=O)(=O)c1ccccc1Oc1cc(COP(=O)(N2CC2)N2CC2)ccc1[N+](=O)[O-] [Compound 2981] | 3700 nM
CC(OP(=O)(N1CC1)N1CC1)c1ccc([N+](=O)[O-])c(Oc2ccc3c(cnn3C)c2)c1 (stereo not drawn) [Compound 2919] | 4 nM
O=[N+]([O-])c1ccc(COP(=O)(N2CC2)N2CC2)cc1Oc1ccccn1 [Compound 2875] | 3200 nM

Compound | IC50
Cc1ccccc1-c1ccc(Oc2cc(COP(=O)(N3CC3)N3CC3)ccc2[N+](=O)[O-])cc1 [Compound 3033] | 1 nM
CNC(=O)c1ccc(Oc2cc(COP(=O)(N3CC3)N3CC3)ccc2[N+](=O)[O-])cc1 [Compound 2940] | 5 nM
CNC(=O)c1cccc(Oc2cc(COP(=O)(N3CC3)N3CC3)ccc2[N+](=O)[O-])c1 [Compound 2937] | 2 nM
CC(OP(=O)(N1CC1)N1CC1)c1ccc([N+](=O)[O-])c(Oc2ccccn2)c1 (stereo not drawn) [Compound 2874] | 500 nM
CCOC(=O)c1cccc(Oc2cc(C(C)OP(=O)(N3CC3)N3CC3)ccc2[N+](=O)[O-])c1 (stereo not drawn) [Compound 2854] | < 5 nM
O=[N+]([O-])c1ccc(COP(=O)(N2CC2)N2CC2)cc1Oc1ccc2ncsc2c1 [Compound 2901] | 3 nM
O=[N+]([O-])c1ccc(COP(=O)(N2CC2)N2CC2)cc1Oc1ccc(F)nc1 [Compound 2892] | 2 nM
CC(OP(=O)(N1CC1)N1CC1)c1ccc([N+](=O)[O-])c(Oc2ccccc2-c2ccccc2)c1 (stereo not drawn) [Compound 3028] | 700 nM
CC(OP(=O)(N1CC1)N1CC1)c1ccc([N+](=O)[O-])c(Oc2ccccc2Cl)c1 (stereo not drawn) [Compound 2862] | 40 nM
CC(OP(=O)(N1CC1)N1CC1)c1ccc([N+](=O)[O-])c(Oc2ccc(-c3nccs3)cc2)c1 (stereo not drawn) [Compound 2898] | 10 nM
CC(OP(=O)(N1CC1)N1CC1)c1ccc([N+](=O)[O-])c(Oc2ccc(F)nc2)c1 (stereo not drawn) [Compound 2893] | 20 nM
CC(OP(=O)(N1CC1)N1CC1)c1ccc([N+](=O)[O-])c(Oc2cnc3cccnc3c2)c1 (stereo not drawn) [Compound 2933] | 100 nM
CC(OP(=O)(N1CC1)N1CC1)c1ccc([N+](=O)[O-])c(Oc2ccc(S(=O)(=O)N(C)C)cc2)c1 (stereo not drawn) [Compound 2881] | 30 nM
CC(OP(=O)(N1CC1)N1CC1)c1ccc([N+](=O)[O-])c(Oc2ccc3ocnc3c2)c1 (stereo not drawn) [Compound 2914] | 30 nM
N#C/C(=N\Oc1cc(COP(=O)(N2CC2)N2CC2)ccc1[N+](=O)[O-])c1ccccc1 [Compound 2948] | 40 nM
CC(OP(=O)(N1CC1)N1CC1)c1ccc([N+](=O)[O-])c(Oc2nccs2)c1 (stereo not drawn) [Compound 2944] | > 5000 nM
CC(OP(=O)(N1CC1)N1CC1)c1ccc([N+](=O)[O-])c(Oc2ccc(C#N)cc2)c1 (stereo not drawn) [Compound 2872] | 30 nM
NS(=O)(=O)c1ccc(Oc2cc(COP(=O)(N3CC3)N3CC3)ccc2[N+](=O)[O-])cc1 [Compound 2887] | 200 nM
Cc1nc2ccc(Oc3cc(C(C)OP(=O)(N4CC4)N4CC4)ccc3[N+](=O)[O-])cc2s1 (stereo not drawn) [Compound 2930] | 2 nM
CC(OP(=O)(N1CC1)N1CC1)c1ccc([N+](=O)[O-])c(Oc2cnc3ccccc3c2)c1 (stereo not drawn) [Compound 2956] | 4 nM
